Assay results published in patent US20210052512A1, “CANNABIDIOL PREPARATIONS AND ITS USES” (GW Research Limited, priority 2018, published 2021).

Assays:
[1] = system: sub-chronic PCP-induced deficit in novel object recognition; test: Novel object recognition (NOR) test after sub-chronic PCP; type: in vivo, rats
Procedure: Female hooded-Lister rats were used for this experiment. Rats were housed in groups of 5 under standard laboratory conditions under a 12 hr light: dark cycle, with lights on at 0700 hr. Testing was carried out in the light phase. Rats were randomly assigned to two treatment groups and treated with vehicle, n=20 (distilled water, i.p.) or Phencyclidine hydrochloride (PCP), n=100 (2 mg/kg, i.p. twice daily for 7-days). PCP was dissolved in distilled water. This was followed by a 7-day wash out period before the rats were tested following acute treatment with CBD, risperidone or vehicle.
Risperidone (0.1 mg/kg) was dissolved in a minimum volume of acetic acid, made up to volume with distilled water and pH adjusted to 6 with 0.1M NaOH and administered via the i.p. route in a volume of 1 ml/kg, 120 minutes prior to testing.
Botanically derived purified CBD was tested at 2, 10, 20 or 100 mg/kg and was dissolved in 2:1:17 (Ethanol:Cremofor:Saline 0.9%) and administered via the i.p. route in a volume of 5 ml/kg, 60 minutes prior to testing. The THC concentration in the botanically derived purified CBD was 0.03% (w/w) THC.
Synthetic CBD at 1, 2, 5, 10 or 20 mg/kg was dissolved in 2:1:17 (Ethanol:Cremofor:Saline 0.9%) and administered via the i.p. route in a volume of 5 ml/kg, 120 minutes prior to testing.
Rats were allowed to habituate to the empty test box and the behavioral test room environment for one hour on day 1. Prior to behavioral testing on day 2, rats were given a further 3 minute habituation.
Following the 3 minute habituation period, the rats are given two 3 minute trials (T1 and T2) which were separated by a 1 minute inter-trial interval in the home cage during which the objects were changed. Behavior in all trials was recorded on video for subsequent blind scoring.
In the acquisition trial (T1), the animals were allowed to explore two identical objects (A1 and A2) for 3 minutes. In the retention trial (T2), the animals were allowed to explore a familiar object (A) from T1 and a novel object (B) for 3 minutes. […]
The exploration time(s) of each object (A, B, familiar and novel) in each trial were recorded using two stopwatches and the following factors were calculated: total exploration time of both objects in the acquisition trial, total exploration time of both objects in the retention trial. Habituation of exploratory activity included the exploration time, as measured by the number of lines crossed, for both trials.
All data were assessed for normality using D'Agostino and Pearson normality test. Data non-normally distributed were analyzed using Kruskal-Wallis followed by planned comparisons with Dunn's correction. Normally distributed data were analyzed using one-way ANOVA followed by planned comparisons with Sidak's correction. […]

[2] = system: human iPSC derived cerebral cortical neural stem/progenitor cells (hNSCs); test: Neurogenesis and neuronal differentiation of hNSCs (MAP2+ cell count, immunohistochemistry); type: cell-based; conditions: for Mean % MAP2+ cells (3 days): 3 days incubation; for Mean % MAP2+ cells (3 days) / Mean % MAP2+ cells (5 days): hNSCs; for Mean % MAP2+ cells (5 days): 5 days incubation
Procedure: Human iPSC-derived cerebral cortical neural stem cells (hNSCs) (Axol Bioscience Inc., UK) were cultured as monolayers at a density of 1.0×10^4 cells/cm^2 on 100 mm diameter Petri dishes. The cells were collected from their original cryovial, suspended in Plating-XF Medium and plated on Petri dishes coated with SureBondXF 1× working solution prepared in D-PBS (without calcium or magnesium). hNSCs were incubated at 37° C. and 5% CO2 and 24 hours after of incubation, the plating medium was replaced with fresh Neural Expansion-XF Medium supplemented with the growth factors Recombinant Human EGF and Recombinant Human FGF2 (final concentration of 20 ng/mL (1×) of FGF2 and EGF). The cultures were re-fed with fresh Neural Expansion-XF supplemented with EGF and FGF2 every two days. When the hNSCs reached approximately 80% confluence, they were prepared for treatment. Pre-warmed Axol Unlock-XF was used to detach the cells and after 3 minutes of incubation the cells were re-suspended in Neural Expansion-XF Medium supplemented with EGF and FGF2. The cells (1×10^4 cells/cm^2) were then plated in Petri dishes coated with SureBondXF 1× and after 2 hours the medium was replaced with fresh Neural Expansion-XF supplemented with EGF and FGF2.
hNSCs cultured as described above were plated at a density of 1×10^4 cells/cm^2 on SureBondXF-coated coverslips in the presence of botanically derived purified CBD; synthetic CBD; or vehicle diluted in the Neural Differentiation-XF Medium (DM, without growth factors) for 3-5 days at 37° C. in a 5% CO2/95% air atmosphere.
Cannabinoids were dissolved in 95% (v/v) ethanol and added to the medium to obtain final concentrations of 0.1 or 1 μM CBD.
Ethanol was added to the vehicle-treated cells for the whole differentiation period of 3-5 days wherein the final concentration was never higher than 0.05% (v/v).
In order to perform immunohistochemistry, the cells were fixed with 4% (w/v) paraformaldehyde. Nonspecific binding was blocked with 10% (v/v) fetal bovine serum and 0.1% (v/v) Triton X-100 and incubated with primary antibodies: mouse anti-Map2ab (Sigma-Aldrich; 1:200) and rabbit anti-GFAP (DAKO; 1:200) or rabbit anti-Gap43 (Synaptic System; 1:300 at room temperature for 4 hours. Secondary antibodies—anti-mouse Alexa594 (Life Technologies; 1:100) and anti-rabbit Alexa488 (Life Technologies; 1:100)—were used for immunofluorescence. Cells were then counterstained with DAPI, washed with PBS and cover slipped with Aquatex mounting medium (Merck, Darmstadt, Germany). The immunofluorescence was studied with an epifluorescence microscope (Leica AF6000) equipped with the appropriate filter and then acquired using a digital camera (Leica, DFC 340) connected to the microscope and image analysis software (Leica, LAS AF). No immunoreactivity was found in the samples processed for the control of specificity of each primary antibody used in the study, which was performed by omitting the primary antibody before adding the appropriate secondary antibody.
Digital Leica LAS AF 2.2.0 software (Live Data Mode system) was used for counting Map2ab+DAPI+ cells. […] For each experimental condition, cells from 3 different tubes were each analyzed in triplicate and 3 frames were collected at 20× magnification. Data were analyzed with GraphPad Prism 6 software, version 6.05 (GraphPad, Inc.) and are expressed as mean±SEM. Statistical differences among groups were determined by two-way ANOVA followed by post hoc Bonferroni tests for comparison among means. […]

[3] = system: human iPSC derived cerebral cortical neural stem/progenitor cells (hNSCs); test: Axonal outgrowth and neuronal differentiation of hNSCs (GAP43 immunocytochemistry); type: cell-based; conditions: 1 μM
Procedure: Human iPSC-derived cerebral cortical neural stem cells (hNSCs) (Axol Bioscience Inc., UK) were cultured as monolayers at a density of 1.0×10^4 cells/cm^2 on 100 mm diameter Petri dishes. The cells were collected from their original cryovial, suspended in Plating-XF Medium and plated on Petri dishes coated with SureBondXF 1× working solution prepared in D-PBS (without calcium or magnesium). hNSCs were incubated at 37° C. and 5% CO2 and 24 hours after of incubation, the plating medium was replaced with fresh Neural Expansion-XF Medium supplemented with the growth factors Recombinant Human EGF and Recombinant Human FGF2 (final concentration of 20 ng/mL (1×) of FGF2 and EGF). The cultures were re-fed with fresh Neural Expansion-XF supplemented with EGF and FGF2 every two days. When the hNSCs reached approximately 80% confluence, they were prepared for treatment. Pre-warmed Axol Unlock-XF was used to detach the cells and after 3 minutes of incubation the cells were re-suspended in Neural Expansion-XF Medium supplemented with EGF and FGF2. The cells (1×10^4 cells/cm^2) were then plated in Petri dishes coated with SureBondXF 1× and after 2 hours the medium was replaced with fresh Neural Expansion-XF supplemented with EGF and FGF2. […]

[4] = system: MES-induced tonic seizures; test: Maximal electroshock seizure (MES) test; type: in vivo, mice; conditions: for HED - mg (human equivalent dose): converted to HED of 10 mg/kg, assuming 60 kg human
Procedure: This study was performed using male C57Bl6 mice, weighing between 23.6-31.2 g, which were purchased from a licensed breeder (Charles River, UK). Naïve mice were acclimatized to the procedure room in their home cages, with food and water available ad libitum. Animals were housed in groups of 2-3, in standard caging on a 12 hr/12 hr light-dark cycle. All animals were tail marked and weighed at the beginning of the study. Animals were randomly assigned to vehicle or treatment groups.
The following drugs were used in this study: synthetic CBD (SYN) and botanically derived purified CBD (BOT). The control vehicle used was (1:1:18), which was 5% Ethanol, 5% Kolliphor, 90% saline, and has been used extensively throughout similar seizure tests. All drugs were dissolved in the control vehicle for comparison. Animals were dosed (10 ml/kg) i.p. at 60 minutes prior to the administration of the maximal electroshock seizure (MES) test. In addition to the vehicle group, the dosage groups used for each treatment and included doses of 10, 50, 100 (Experiment 1 only), 150 and 200 mg/kg for CBD (SYN) and CBD (BOT). The number of animals in each of these groups were 10 (n=10).
Two separate experiments were undertaken using two different batches of the botanically derived purified CBD. In the first experiment the concentration of THC in botanically derived purified CBD was 0.02% THC (w/w) whereas in the second experiment the concentration of THC in the botanically derived purified CBD was approximately 0.1% THC (w/w).
The protective activity of CBD (SYN) and CBD (BOT) was evaluated and expressed as effective doses (ED50 in mg/kg), protecting 50% of mice against MES-induced tonic seizures. Electroconvulsions were produced by a fixed current intensity of 30 mA and corneally delivered electroshock (0.2 second duration). Mice were individually assessed for seizures following this pre-determined high level (30 mA) corneally delivered electroshock of sufficient intensity to reliably produce tonic hind limb extension seizures in 100% of control animals. […]

For `C=C(C)[C@@H]1CCC(C)=C[C@H]1c1c(O)cc(CCCCC)cc1O` [Synthetic CBD, 2-[(1R,6R)-3-Methyl-6-(1-methylethenyl)-2-cyclohexen-1-yl]-5-pentyl-1,3-benzenediol], the “human daily amount equivalent to the rat MED” value ([1]; 70 kg human) was 112 mg/day, the “amount of CBD required in a human relative to botanically derived purified CBD” value ([1]; from difference in MED) was “five times the amount of CBD” and the “human equivalent dose of the rat MED” value ([1]; rat dose multiplied by 0.16 (FDA dose conversion guidance)) was 1.6 mg/kg/day. For the same compound, the “minimal effective dose (MED) attenuating sub-chronic PCP-induced deficit in novel object recognition” value ([1]; rats, i.p., 120 min ppt) was 10 mg/kg, the “Mean % MAP2+ cells (3 days)” value ([2]; 0.1 μM) was 4.87 ± 0.1% and the “Mean % MAP2+ cells (5 days)” value ([2]; 0.1 μM) was 6.02 ± 0.3%. For the same compound, the “Mean % MAP2+ cells (3 days)” value ([2]; 1 μM) was 6.11 ± 0.3%, the “Mean % MAP2+ cells (5 days)” value ([2]; 1 μM) was 7.09 ± 0.1% and the “Effect on neurogenesis and neuronal differentiation of hNSCs (in words)” value ([2]; 0.1 and 1 μM, 3 or 5 days, relative to vehicle-treated cells) was “did not have a significant effect”. For the same compound, the “Mean % GAP43+ cells (3 days)” value ([3]; 3 days incubation) was 8.40 ± 2.0%, the “Mean % GAP43+ cells (5 days)” value ([3]; 5 days incubation) was 9.15 ± 1.6% and the “HED - mg (human equivalent dose)” value ([4]; Experiment 1) was 600.0 mg. For the same compound, the “ED50 protecting 50% of mice against MES-induced tonic seizures” value ([4]; Experiment 1, i.p. 60 minutes prior to MES, sigmoidal curve - constant top, listed as CBD (SYN)) was 77.60 mg/kg and the “HED - mg (human equivalent dose)” value ([4]; Experiment 2) was 600.0 mg.
